Entries after “also recorded” stand apart in the source; their conditions may differ.
Key:
[1] = system: cell shape, microtubules and actin of phLFs; assay: Fluorescence microscopy of cell morphology and cytoskeleton (α-Tubulin, phalloidin, calcein); format: cell-based, human
Text: FIG. 14: Dose-response relationships of N23Ps, live imaging of ECM deposition and cell-morphology switch. (A) Structural formula for Tranilast and N23Ps (example 84 and example 85) indicating 2-butoxy-substitution at R1 and IC50 values. […] Cell nuclei in blue (HOECHST). Scale bar=500 μm. […] Cell nuclei were stained by Hoechst (blue). Scale bar=50 μm. (F) Confocal images of subconfluent phLFs+TGFβ1 stained for Hoechst (blue), calcein (green) and phalloidin (red) showing round cell morphologies after treatment with example 84 as well as extensive actin cytoskeletal rearrangements (red). […] Scale bar=500 μm. Data are presented as means t SEM. Differences between groups were evaluated with paired t-tests. * p<0.05. n=3 (three different patient phLFs).
FIG. 16: (A) Fluorescence wide-field microscopy images (10× objective in low magnification and resolution) of phLFs treated with 5 μM DMSO, 50 μM example 84 and 100 μM Tranilast, and stained for Hoechst (blue), α-Tubulin (green) and filamentous actin (red, Phalloidin). […] Scale bar=100 μm. (B) Fluorescence wide-field microscopy images (63× objective in high magnification and resolution) of phLFs treated with either 5 μM DMSO or 50 μM example 84, and stained for Hoechst (blue), a.-Tubulin (green) and filamentous actin (red, Phalloidin). […] Scale bar=[…]. iPSC=induced pluripotent stem cells. […] Scale bar=350 μm. […] Thus, the compounds of the present invention show similar effects like colchicine on microtubules (41). Therefore, the compounds of the present invention are also for use in the treatment of inflammatory diseases such as arthrolithiasis, familiar mediterranean fever and pericarditis amongst others by the inhibition of polymorphonuclear leukocyte and macrophage motility as well as intracellular vesicular transport mechanisms.
For standard immunofluorescence staining, 5000 phLFs were seeded into 96 well imaging plates with a flat bottom (Cat #353376, BD Biosciences). After incubation, cells were fixed with either 4% PFA for 30 min at 37° C. or 100% methanol for 2 min at −20° C. […]

[2] = system: TGFβ1-induced fibulin-1 ECM deposition in primary human lung IPF-fibroblasts (phLFs); assay: Assessing N23P activity in inhibiting ECM deposition in IPF-fibroblasts (fibulin-1 MFI); format: cell-based; settings: Homo sapiens, 72 h, 10 μM, TGFβ1 1 ng/ml, MFI, three different IPF-phLFs (n=3)
Procedure: phLFs were cultured in DMEM F-12 medium with 20% fetal bovine serum (FBS) and antibiotic supplement as mentioned above. Cells were seeded with 6000 cells/well in 384-well CellCarrier plates (Perkin Elmer, Cat #6007550). Following overnight incubation, cells were starved in serum-reduced medium (1% FBS with 0.1 mM 2-phosphoascorbate (Sigma, Cat #49752)) for 24 h. Afterwards, cells were treated with TGFβ1 (1 ng/ml) or vehicle, and additionally small molecules or appropriate vehicle controls were added. After 72 h of incubation, medium was changed for starving medium with 1 μg/mL AlexaFluor-488 fluorophore conjugated anti-collagen-type-5 antibodies (SantaCruz, Clone C-5, Cat #sc-166155 AF488), 0.66 μg/mL AlexaFluor-555 fluorophore conjugated anti-collagen-type-1 antibodies (Rockland, Cat #600-401-103-0.1), and 1 μg/mL AlexaFluor-637 fluorophore conjugated anti-fibulin 1 antibodies (SantaCruz, Clone C-5, Cat #sc-25281 AF647) and 1 μg/mL Hoechst H33342 (Sigma). Fluorescenceconjugation of the collagen type 1 antibody was done by using the AlexaFluor-555 Protein Labeling Kit (Invitrogen, Cat #A20174) according to manufacturer's instructions. Labeling efficacy was controlled by photometrical means.
Following four hours of incubation, cells were washed three times with PBS and fixed with paraformaldehyde (PFA). For automated liquid handling in 384 well plates, an INTEGRA Assist Plus (INTEGRA, Zizers, Switzerland) equipped with an INTEGRA Viaflo 1I pipette (INTEGRA, Zizers, Switzerland, Cat #4642), 125 μL GripTips™ pipette tips (INTEGRA, Zizers, Switzerland, Cat #6464) and sterile reagent reservoirs (INTEGRA, Cat #4311) were applied. All automated pipetting steps with the INTEGRA Assist Plus were performed at 9.5 μL/s in order to ensure proper integrity and attachment of the deposited ECM to the culturing surface within the wells of the 384-well plates. During cell seeding the automated liquid handling was performed at 89.3 μL/s. Removal of liquids from the well-plates was done by manually inverting the plates.
Following fixation, the automated imaging was achieved by using aconfocal laser scanning microscope (LSM710, Zeiss) with automated focus detection for three-dimensional image acquisition (1024 px×1024 px×9 px which equals a dimension of 1417 μm×1417 μm×16 μm). For post-acquisition analysis images were imported into IMARIS software (Bitplane) and volume detection or alternatively quantification of the mean fluorescence intensity, as well as Hoechst-stained cell nuclei were automatically counted by using Imaris' spot detection algorithm.
Cells were seeded with 6000 cells/well in 384-well CellCarrier plates. After overnight incubation, cells were starved in serum-reduced medium (1% FBS with 0.1 mM 2-phosphoascorbate for 24 h). Then, phLFs were treated with TGFβ1 (1 ng/ml) or vehicle, and incubated together with synthesized N23Ps (10 μM) or appropriate vehicle controls. After 72 h of incubation, medium was changed for starvation medium with 1 μg/mL AlexaFluor-637 fluorophore conjugated anti-fibulin 1 antibodies (SantaCruz, Clone C-5, Cat #sc-25281 AF647) and 1 μg/mL Hoechst H33342 (Sigma). Following four hours of incubation, cells were washed three times with PBS and fixed with paraformaldehyde (PFA). Following fixation, the automated imaging was achieved by using a confocal laser scanning microscope (LSM710, Zeiss) with automated focus detection for three-dimensional image acquisition (1024 px×1024 px×9 px which equals a dimension of 1417 μm×1417 μm×16 μm). For post-acquisition analysis images were imported into IMARIS software (Bitplane) and quantified for the mean fluorescence intensity, as well as Hoechst-stained cell nuclei were automatically counted by using Imaris' spot detection algorithm.
Assessment of ECM inhibition I: Mean fluorescence intensity (MFI) values represented the degree of fibulin-1 ECM deposition in three different IPF-phLFs (n=3). […]

CCCCOc1ccccc1NC(=O)/C=C/c1ccc(OC)c(OC)c1 [Example 84, (E)-N-(2-butoxyphenyl)-3-(3,4-dimethoxyphenyl)acrylamide] was tested, and the cell morphology ([1]; b48: example 84 50 μM, Tranilast 100 μM) was “significant changes in cell-shape and eccentricity towards round cells; also recorded: cell-shape switch towards round cell morphologies”, the “actin filaments (Phalloidin)” value ([1]; example 84 50 μM) was “without affecting actin filaments” and the “microtubules (α-Tubulin staining)” value ([1]; example 84 50 μM, Tranilast 100 μM) was “depolymerized, that is non-filamentous, microtubules”. The inhibition at 10 µM [2] was greater than 90%.
